Molecular target: T1, complex I (mitochondrial electron transport system; multi-subunit)
T1 construct: gene Mtnd1; native complex I in freeze-fractured fragments of isolated skeletal muscle mitochondria
Test: NADH oxidation (complex I activity) assay in mitochondrial fragments, dose-response
Format: biochemical, Mus musculus

`CC(Sc1nc2ccccc2[nH]1)C(=O)N/N=C/c1cc(Br)ccc1O` (racemic) [KH7] gave an IC50 of 3.7 µM.

Reference: publication PMC4646981, “Protein Kinase A Governs Oxidative Phosphorylation Kinetics and Oxidant Emitting Potential at Complex I” (Frontiers in Physiology, 2015)
